In ChEMBL document CHEMBL3885881, “DrugMatrix”:

Species on record: Rattus norvegicus
Test: DrugMatrix - Regimen: Daily Repeat
Type: toxicity, organism-based, Sprague-Dawley
Design: regimen Daily Repeat, gender Male, age 6-8 weeks
Conditions: in vivo, ip, 0.5 mg/kg, route intraperitoneal, dose level High, vehicle 100 % SALINE; for ALANINE AMINOTRANSFERASE / ALBUMIN / ALKALINE PHOSPHATASE / ASPARTATE AMINOTRANSFERASE / BLOOD UREA NITROGEN / CHLORIDE / CHOLESTEROL / CREATINE PHOSPHOKINASE / CREATININE / GLUCOSE / LACTATE DEHYDROGENASE / LIPASE / PHOSPHORUS / POTASSIUM / SODIUM / TOTAL BILIRUBIN / TOTAL PROTEIN / URIC ACID: tissue Plasma
[1] = 120 h, tissue Blood, time 5 day

TRANSPLATIN
ABSOLUTE BASOPHIL [1]: 86 cells/µL
ABSOLUTE EOSINOPHIL [1]: 98 cells/µL
ABSOLUTE LYMPHOCYTE [1]: 10800 cells/µL
ABSOLUTE MONOCYTE [1]: 340 cells/µL
ABSOLUTE SEGMENTED NEUTROPHIL [1]: 1910 cells/µL
BASOPHIL [1]: 0.64%
EOSINOPHIL [1]: 0.74%
ERYTHROCYTE COUNT [1]: 7.41 x10E6/uL
HEMATOCRIT [1]: 45.48%
HEMOGLOBIN [1]: 14.92 G/DL
LEUKOCYTE COUNT [1]: 13.36 x10E3/uL
LYMPHOCYTE [1]: 80.42%
MEAN CORPUSCULAR HEMOGLOBIN [1]: 20.12 pg
MEAN CORPUSCULAR HEMOGLOBIN CONCENTRATION [1]: 32.8 G/DL
MONOCYTE [1]: 2.5%
NEUTROPHIL [1]: 14.94%
PLATELET COUNT [1]: 1349 x10E3/uL
ALANINE AMINOTRANSFERASE (120 h, time 5 day): 30.2 u/L
ALBUMIN (120 h, time 5 day): 3.6 G/DL
ALKALINE PHOSPHATASE (120 h, time 5 day): 229 u/L
ASPARTATE AMINOTRANSFERASE (120 h, time 5 day): 82.8 u/L
BLOOD UREA NITROGEN (120 h, time 5 day): 15 mg/dL
CHLORIDE (120 h, time 5 day): 110 MEQ/L
CHOLESTEROL (120 h, time 5 day): 67.2 mg/dL
CREATINE PHOSPHOKINASE (120 h, time 5 day): 368.2 u/L
CREATININE (120 h, time 5 day): 0.52 mg/dL
GLUCOSE (120 h, time 5 day): 119 mg/dL
LACTATE DEHYDROGENASE (120 h, time 5 day): 67.6 u/L
LIPASE (120 h, time 5 day): 22.4 u/L
PHOSPHORUS (120 h, time 5 day): 9.94 mg/dL
POTASSIUM (120 h, time 5 day): 6.16 MEQ/L
SODIUM (120 h, time 5 day): 151.8 MEQ/L
TOTAL BILIRUBIN (120 h, time 5 day): 0.2 mg/dL
TOTAL PROTEIN (120 h, time 5 day): 6.2 G/DL
URIC ACID (120 h, time 5 day): 0.98 mg/dL
ABSOLUTE BASOPHIL ([…], tissue Blood, time 14 day): 68 cells/µL
ABSOLUTE EOSINOPHIL ([…], tissue Blood, time 14 day): 76 cells/µL
ABSOLUTE LYMPHOCYTE ([…], tissue Blood, time 14 day): 6430 cells/µL
ABSOLUTE MONOCYTE ([…], tissue Blood, time 14 day): 260 cells/µL
ABSOLUTE SEGMENTED NEUTROPHIL ([…], tissue Blood, time 14 day): 2460 cells/µL
BASOPHIL ([…], tissue Blood, time 14 day): 0.74%
EOSINOPHIL ([…], tissue Blood, time 14 day): 0.84%
ERYTHROCYTE COUNT ([…], tissue Blood, time 14 day): 7.71 x10E6/uL
HEMATOCRIT ([…], tissue Blood, time 14 day): 46.84%
HEMOGLOBIN ([…], tissue Blood, time 14 day): 15.04 G/DL
LEUKOCYTE COUNT ([…], tissue Blood, time 14 day): 9.33 x10E3/uL
LYMPHOCYTE ([…], tissue Blood, time 14 day): 69.2%
MEAN CORPUSCULAR HEMOGLOBIN ([…], tissue Blood, time 14 day): 19.52 pg
MEAN CORPUSCULAR HEMOGLOBIN CONCENTRATION ([…], tissue Blood, time 14 day): 32.1 G/DL
MONOCYTE ([…], tissue Blood, time 14 day): 2.7%
NEUTROPHIL ([…], tissue Blood, time 14 day): 26.14%
PLATELET COUNT ([…], tissue Blood, time 14 day): 1318.6 x10E3/uL
ABSOLUTE BASOPHIL ([…], tissue Blood, time 28 day): 120 cells/µL
ABSOLUTE EOSINOPHIL ([…], tissue Blood, time 28 day): 130 cells/µL
ABSOLUTE LYMPHOCYTE ([…], tissue Blood, time 28 day): 9640 cells/µL
ABSOLUTE MONOCYTE ([…], tissue Blood, time 28 day): 190 cells/µL
ABSOLUTE SEGMENTED NEUTROPHIL ([…], tissue Blood, time 28 day): 1790 cells/µL
BASOPHIL ([…], tissue Blood, time 28 day): 1.07%
EOSINOPHIL ([…], tissue Blood, time 28 day): 1.08%
ERYTHROCYTE COUNT ([…], tissue Blood, time 28 day): 8.68 x10E6/uL
HEMATOCRIT ([…], tissue Blood, time 28 day): 49.56%
LEUKOCYTE COUNT ([…], tissue Blood, time 28 day): 11.93 x10E3/uL
LYMPHOCYTE ([…], tissue Blood, time 28 day): 80.6%
MEAN CORPUSCULAR HEMOGLOBIN ([…], tissue Blood, time 28 day): 18.81 pg
MEAN CORPUSCULAR HEMOGLOBIN CONCENTRATION ([…], tissue Blood, time 28 day): 32.89 G/DL
MEAN CORPUSCULAR VOLUME ([…], tissue Blood, time 28 day): 57.13 fL
MONOCYTE ([…], tissue Blood, time 28 day): 1.64%
NEUTROPHIL ([…], tissue Blood, time 28 day): 15.11%
PLATELET COUNT ([…], tissue Blood, time 28 day): 1319.89 x10E3/uL
ALANINE AMINOTRANSFERASE ([…], time 14 day): 24.6 u/L
ALBUMIN ([…], time 14 day): 3.5 G/DL
ALKALINE PHOSPHATASE ([…], time 14 day): 202 u/L
ASPARTATE AMINOTRANSFERASE ([…], time 14 day): 78.6 u/L
BLOOD UREA NITROGEN ([…], time 14 day): 12.6 mg/dL
CHOLESTEROL ([…], time 14 day): 52.8 mg/dL
CREATINE PHOSPHOKINASE ([…], time 14 day): 180.2 u/L
CREATININE ([…], time 14 day): 0.58 mg/dL
GLUCOSE ([…], time 14 day): 120.4 mg/dL
LACTATE DEHYDROGENASE ([…], time 14 day): 80.8 u/L
LIPASE ([…], time 14 day): 54.4 u/L
POTASSIUM ([…], time 14 day): 5.82 MEQ/L
SODIUM ([…], time 14 day): 150.8 MEQ/L
TOTAL BILIRUBIN ([…], time 14 day): 0.3 mg/dL
TOTAL PROTEIN ([…], time 14 day): 6.48 G/DL
URIC ACID ([…], time 14 day): 0.98 mg/dL
ALANINE AMINOTRANSFERASE ([…], time 28 day): 35.44 u/L
ALBUMIN ([…], time 28 day): 3.69 G/DL
ALKALINE PHOSPHATASE ([…], time 28 day): 151 u/L
ASPARTATE AMINOTRANSFERASE ([…], time 28 day): 83 u/L
BLOOD UREA NITROGEN ([…], time 28 day): 14 mg/dL
CHLORIDE ([…], time 28 day): 108.89 MEQ/L
CHOLESTEROL ([…], time 28 day): 61.44 mg/dL
CREATINE PHOSPHOKINASE ([…], time 28 day): 144.22 u/L
CREATININE ([…], time 28 day): 0.58 mg/dL
GLUCOSE ([…], time 28 day): 132.22 mg/dL
LACTATE DEHYDROGENASE ([…], time 28 day): 67.22 u/L
LIPASE ([…], time 28 day): 45.22 u/L
PHOSPHORUS ([…], time 28 day): 9.38 mg/dL
SODIUM ([…], time 28 day): 151.78 MEQ/L
TOTAL BILIRUBIN ([…], time 28 day): 0.2 mg/dL
TOTAL PROTEIN ([…], time 28 day): 6.82 G/DL
URIC ACID ([…], time 28 day): 1.21 mg/dL
